Data as given in patent publication US8937072B2, “Substituted cyanoaniline compounds, preparation and use thereof” (Sinochem Corporation, priority 2011, dated 2015).
Where two headings read alike, the source gives them in different places.

How the values were obtained:
[1] = tested on: corn rust; assay: Protectant activity in vivo (whole plant) against corn rust; conditions: for pest or weed control at 6.25 µg/mL / pest or weed control at 25 µg/mL / pest or weed control at 100 µg/mL / pest or weed control at 400 µg/mL: Zea mays, 168 h
Protocol: (§1) The method is as followed: The whole plant is used in this test. The compound is dissolved in a proper solvent to get mother solution. The proper solvent is selected from acetone, methanol, DMF and so on according to their dissolving capability to the sample. The volume rate of solvent and testing solution (v/v) is equal to or less than 5%. The mother solution is diluted with water containing 0.1% tween-80 to get the testing solution whose concentration is designed. The testing solution is sprayed to the host plant by a special plant sprayer. The plant is inoculated with fungus after 24 hours. According to the infecting characteristic of fungus, the plant is stored in a humidity chamber and then transferred into greenhouse after infection is finished. And the other plants are placed in greenhouse directly. The activity of compound is obtained by eyeballing after 7 days in common.

[2] = tested on: cucumber downy mildew; assay: Protectant activity in vivo (whole plant) against cucumber downy mildew; conditions: for pest or weed control at 12.5 µg/mL: 12.5 mg/L
Protocol: as §1

[3] = tested on: cucumber gray mold; assay: Activity in vitro (96-well, High Through Put): inhibition rate against cucumber gray mold; format: cell-based; conditions: for inhibition at 0.3 µg/mL: 0.3 mg/L; for inhibition at 0.9 µg/mL: 0.9 mg/L; for inhibition at 8.3 µg/mL: 8.3 mg/L
Protocol: The method is as followed: High Through Put is used in the test. The compound is dissolved in a proper solvent to become a testing solution whose concentration is designed. The solvent is selected from acetone, methanol, DMF and so on according to their dissolving capability to the sample. In a no animalcule condition, the testing solution and pathogens suspension are added into the cells of 96 cells culture board, which then should be placed in the constant temperature box. 24 hours later, pathogen germination or growth can be investigated by eyeballing, and the activity in vitro of the compound is evaluated based on germination or growth of control treatment.

[4] = read-out: the inhibition rate against cucumber gray mold (%)
[5] = 2.8 mg/L, read-out: the inhibition rate against cucumber gray mold (%)
[6] = Cucumis sativus, 168 h, 25 mg/L, read-out: the protectant activity (%) against cucumber downy mildew
[7] = Cucumis sativus, 168 h, 50 mg/L, read-out: the protectant activity (%) against cucumber downy mildew
[8] = Cucumis sativus, 168 h, 100 mg/L, read-out: the protectant activity (%) against cucumber downy mildew
[9] = Cucumis sativus, 168 h, dose 50 mg/L, read-out: protectant activity against cucumber downy mildew in vivo
[10] = 400 mg/L, read-out: the protectant activity (%) against corn rust
[11] = dose 400 mg/L, read-out: protectant activity against corn rust in vivo

`N#Cc1c(Cl)c(Cl)c(C#N)c(Nc2ccc(Cl)c(C(F)(F)F)c2)c1Cl` [Compound C-39] was tested, and the “protectant activity against corn rust in vivo” value ([1]; dose 400 mg/L) was 100%.

For `N#Cc1c(Cl)c(Cl)c(C#N)c(Nc2c(Cl)cc([N+](=O)[O-])cc2Cl)c1Cl` [Compound C-40], the “the protectant activity (%) against corn rust” value (“the protectant activity (%)” below) ([1]; 6.25 mg/L) was 30%, the “the protectant activity (%)” value ([1]; 25 mg/L) was 80% and the “the protectant activity (%)” value ([1]; 100 mg/L) was 100%. The “the protectant activity (%)” value ([1]; 400 mg/L) was 100%, the “protectant activity against corn rust in vivo” value ([1]; dose 100 mg/L) was 100% and the “protectant activity against cucumber downy mildew in vivo” value ([2]; dose 25 mg/L) was 100%. The “protectant activity against cucumber downy mildew in vivo” value ([2]; dose 50 mg/L) was 100%, the “protectant activity against cucumber downy mildew in vivo” value ([2]; dose 100 mg/L) was 100% and the “protectant activity against cucumber downy mildew in vivo” value ([2]; dose 400 mg/L) was 100%.

With `N#Cc1c(Cl)c(Cl)c(C#N)c(Nc2c(Br)cc([N+](=O)[O-])cc2Br)c1Cl` [Compound C-41] the “the protectant activity (%)” value ([1]; 6.25 mg/L) was 50%, the “the protectant activity (%)” value ([1]; 25 mg/L) was 90% and the “the protectant activity (%)” value ([1]; 100 mg/L) was 100%. The “the protectant activity (%)” value ([1]; 400 mg/L) was 100%, the “protectant activity against corn rust in vivo” value ([1]; dose 25 mg/L) was 90% and the “protectant activity against corn rust in vivo” value ([1]; dose 100 mg/L) was 100%. The “protectant activity against corn rust in vivo” value ([1]; dose 400 mg/L) was 100%.

With `N#Cc1c(F)c(F)c(C#N)c(Nc2ccc(Cl)cc2Cl)c1F` [Compound C-71] the “inhibition rate against cucumber gray mold” value ([3]; in vitro, dose 0.9 mg/L) was 80%.

`N#Cc1c(F)c(F)c(C#N)c(Nc2ccc(Cl)cc2[N+](=O)[O-])c1F` [Compound C-89] was tested, and the “protectant activity against corn rust in vivo” value ([1]; dose 400 mg/L) was 80%.

`N#Cc1c(F)c(F)c(C#N)c(Nc2c(Cl)cc([N+](=O)[O-])cc2Cl)c1F` [Compound C-93] was tested, and the “protectant activity against cucumber downy mildew in vivo” value ([2]; dose 400 mg/L) was 100%.

With `N#Cc1c(F)c(F)c(C#N)c(Nc2c(Br)cc([N+](=O)[O-])cc2Br)c1F` [Compound C-96] the “protectant activity against cucumber downy mildew in vivo” value ([2]; dose 50 mg/L) was 98%.

In the case of `N#Cc1cc([N+](=O)[O-])cc(Br)c1Nc1c(F)c(C#N)c(F)c(F)c1C#N` [Compound C-97], the “protectant activity against cucumber downy mildew in vivo” value ([2]; dose 400 mg/L) is reported as 100%.

In the case of `N#Cc1c(F)c(F)c(C#N)c(Nc2c(Cl)cc([N+](=O)[O-])cc2Br)c1F` [Compound C-99], the “protectant activity against corn rust in vivo” value ([1]; dose 400 mg/L) is reported as 100%.

In the case of `N#Cc1cc(C#N)c(Nc2c(Cl)c(C#N)c(Cl)c(Cl)c2C#N)nc1Cl` [Compound C-114], the “protectant activity against corn rust in vivo” value ([1]; dose 400 mg/L) is reported as 100%.

In the case of `N#Cc1c(F)c(F)c(C#N)c(Nc2c(Cl)cncc2Cl)c1F` [Compound C-125], the “protectant activity against corn rust in vivo” value ([1]; dose 400 mg/L) is reported as 100%.

Work on `Cc1ccc(Nc2c(F)c(F)c(C#N)c(F)c2C#N)cc1` [KC9] yielded an inhibition at 0.3 µg/mL [3] of 0%, an inhibition at 0.9 µg/mL [3, 4] of 0% and an inhibition at 2.8 µg/mL [3, 5] of 0%. For the same molecule, the inhibition at 8.3 µg/mL [3, 4] was 80%, the inhibition at 2.8 µg/mL ([3]; in vitro, dose 2.8 mg/L, read-out: inhibition rate against cucumber gray mold) was 0% and the pest or weed control at 25 µg/mL [2, 6] was 20%. The pest or weed control at 50 µg/mL [2, 7] was 30%, the pest or weed control at 100 µg/mL [2, 8] was 65% and the pest or weed control at 25 µg/mL ([2]; Cucumis sativus, 168 h, dose 25 mg/L, read-out: protectant activity against cucumber downy mildew in vivo) was 20%. The pest or weed control at 50 µg/mL [2, 9] was 30%.

For `N#Cc1c(F)c(F)c(C#N)c(Nc2ccc(O)cc2)c1F` [KC16], the pest or weed control at 6.25 µg/mL ([1]; 6.25 mg/L) was 0%, the pest or weed control at 25 µg/mL ([1]; 25 mg/L) was 0% and the pest or weed control at 100 µg/mL ([1]; 100 mg/L) was 0%. The pest or weed control at 400 µg/mL [1, 10] was 0%, the pest or weed control at 400 µg/mL [1, 11] was 0% and the pest or weed control at 12.5 µg/mL ([2]; Cucumis sativus, 168 h) was 0%. It also gave a pest or weed control at 25 µg/mL [2, 6] of 0%, a pest or weed control at 50 µg/mL [2, 7] of 0% and a pest or weed control at 100 µg/mL [2, 8] of 20%. The pest or weed control at 50 µg/mL [2, 9] was 0% and the pest or weed control at 100 µg/mL ([2]; Cucumis sativus, 168 h, dose 100 mg/L, read-out: protectant activity against cucumber downy mildew in vivo) was 20%.

`N#Cc1c(F)c(Cl)c(Nc2ccccc2)c(C#N)c1F` [KC17] showed a pest or weed control at 6.25 µg/mL ([1]; 6.25 mg/L) of 0%, a pest or weed control at 25 µg/mL ([1]; 25 mg/L) of 0% and a pest or weed control at 100 µg/mL ([1]; 100 mg/L) of 0%. For the same molecule, the pest or weed control at 400 µg/mL [1, 10] was 0%, the pest or weed control at 400 µg/mL [1, 11] was 0% and the pest or weed control at 12.5 µg/mL ([2]; Cucumis sativus, 168 h) was 0%. For the same molecule, the pest or weed control at 25 µg/mL [2, 6] was 0%, the pest or weed control at 50 µg/mL [2, 7] was 0% and the pest or weed control at 100 µg/mL [2, 8] was 0%. For the same molecule, the pest or weed control at 400 µg/mL ([2]; Cucumis sativus, 168 h, dose 400 mg/L) was 0%.

For `N#Cc1c(F)c(Cl)c(Nc2ccc(Cl)cc2)c(C#N)c1F` [KC18], the pest or weed control at 6.25 µg/mL ([1]; 6.25 mg/L) was 0%, the pest or weed control at 25 µg/mL ([1]; 25 mg/L) was 0% and the pest or weed control at 100 µg/mL ([1]; 100 mg/L) was 0%. For the same molecule, the pest or weed control at 400 µg/mL [1, 10] was 0% and the pest or weed control at 400 µg/mL [1, 11] was 0%.

With `Cc1ccc(Nc2c(Cl)c(F)c(C#N)c(F)c2C#N)cc1` [KC19] the pest or weed control at 6.25 µg/mL ([1]; 6.25 mg/L) was 0%, the pest or weed control at 25 µg/mL ([1]; 25 mg/L) was 0% and the pest or weed control at 100 µg/mL ([1]; 100 mg/L) was 0%. For the same molecule, the pest or weed control at 400 µg/mL [1, 10] was 0%, the pest or weed control at 400 µg/mL [1, 11] was 0% and the inhibition at 0.3 µg/mL [3] was 0%. For the same molecule, the inhibition at 0.9 µg/mL [3, 4] was 0%, the inhibition at 2.8 µg/mL [3, 5] was 0% and the inhibition at 8.3 µg/mL [3, 4] was 0%. It also gave an inhibition at 25 µg/mL ([3]; in vitro, dose 25 mg/L) of 0%.
